18 molecules from ChEMBL document CHEMBL2086263, “Synthesis and SAR studies of 3-allyl-4-prenyloxyaniline amides as potent 15-lipoxygenase inhibitors” (Bioorg Med Chem, 2012) can be followed below.

The subject of experiment [1] is Radical scavenging activity. The experiment in a line: Antioxidant activity assessed as inhibition of DPPH radical scavenging activity after 30 mins by spectrophotometry. It is filed as functional. In general terms: The DPPH test is a chemical assay of radical scavenging.
The nature of experiment [2]: Inhibition of soybean 15-lipoxygenase using linoleic acid as substrate incubated for 5 mins prior to substrate addition measured after 7 mins by DMAB-MBTH method. Details: species or system Glycine max.

SMILES strings stand for the structures.

One may read the IC50 as the concentration at which inhibition is half-maximal. As to `CC(Cc1ccc(O)c(O)c1)C(C)Cc1ccc(O)c(O)c1` (stereo unspecified) [NORDIHYDROGUAIARETIC ACID], in experiment [1], the IC50 stood at 6.2 µM. In experiment [2], `O=C(O)/C=C/c1ccc(O)c(O)c1` [CAFFEIC ACID] had a half-maximal inhibitory concentration (IC50) of 37.1 µM. In the case of `C=CCc1cc(NC(=O)C23CC4CC(CC(C4)C2)C3)ccc1OC/C=C(\C)CC/C=C(\C)CCC=C(C)C`, the IC50 in experiment [2] stood at 0.69 µM; in experiment [1], 114 µM. The corresponding values for `C=CCc1cc(NC(C)=O)ccc1OC/C=C(\C)CC/C=C(\C)CCC=C(C)C` are 24.8 µM and 225 µM. As for `C=CCc1cc(NC(=O)C23CC4CC(CC(C4)C2)C3)ccc1OCC=C(C)C`, the IC50 in experiment [2] came out at 10.3 µM; in experiment [1], 105 µM.

`C=CCOc1ccc(NC(C)=O)cc1CC=C` had a 50% inhibitory concentration (IC50) in experiment [2] of 67.8 µM. Still for that read-out and setting: with `Cc1nc(N2CCN(C)CC2)nc2c1Nc1ccccc1S2` the figure was 28.2 µM. Still for that read-out and setting: the result for `C=CCOc1ccc(NC(=O)C23CC4CC(CC(C4)C2)C3)cc1CC=C` reads 9.8 µM; that for `C=CCOc1ccc(NC(=O)C2CC2)cc1CC=C`, 54.1 µM.

Take `C=CCc1cc(NC(=O)C2CCC2)ccc1OC/C=C(\C)CC/C=C(\C)CCC=C(C)C`: the IC50 in experiment [2] is 2.1 µM; in experiment [1] it was 140 µM. `C=CCOc1ccc(NC(=O)C2CCCC2)cc1CC=C`: the half-maximal inhibitory concentration (IC50) in experiment [2] was found to be 58 µM. With `C=CCc1cc(NC(=O)C2CCCCC2)ccc1OC/C=C(\C)CC/C=C(\C)CCC=C(C)C`, the 50% inhibitory concentration (IC50) in experiment [2] worked out at 5.2 µM; in experiment [1] it was 529 µM.

As to `C=CCc1cc(NC(=O)C2CC2)ccc1OC/C=C(\C)CC/C=C(\C)CCC=C(C)C`, the values for the IC50 in experiment [2] and in experiment [1] were 16.5 µM and 8.9 µM, respectively. In the same order, the values of `C=CCc1cc(NC(=O)C2CCCC2)ccc1OC/C=C(\C)CC/C=C(\C)CCC=C(C)C` are 35.7 µM and 461 µM.

As to `C=CCOc1ccc(NC(=O)C2CCCCC2)cc1CC=C`, the IC50 in experiment [2] came out at 18.5 µM. Consider `C=CCc1cc(NC(=O)C23CC4CC(CC(C4)C2)C3)ccc1OC/C=C(\C)CCC=C(C)C`, for which the IC50 was determined as 3.6 µM in experiment [2] and 121 µM in experiment [1]. The molecule `C=CCOc1ccc(NC(=O)C2CCC2)cc1CC=C` returned an IC50 in experiment [2] of 19.6 µM.

Take `C=CCOc1ccc(NC(=O)C23CC4CC(CC(C4)C2)C3)cc1`: inhibition in experiment [2] was half-maximal at 27.8 µM (IC50).
